Converted amounts (≈) assume the structure as drawn.
Experiments:
Type in all cases: physicochemical
[1] = Solubility of rapid solvent evaporation products in FaSSIF
Protocol: About 10 mg of the API control of the compound of formula A and 40 mg of the polymer carrier were transferred to 1 mL of DCM:EtOH=9:1 (v/v) to prepare a solution with 20% drug loading. The resulting clear solution was rapidly evaporated at 80° C. until there was no liquid to prepare a solid dispersion. The API control of the compound of formula A was also treated separately in the same manner.

[2] = One-week solid stability study of solid dispersions
Protocol: According to Table 6, three solid dispersions, namely, formulation of API+Soluplus, formulation of API+PVP VA64, and formulation of API+HPC SSL, were stored at 25° C./60% RH (open) and 40° C./75% RH (open) for one week, the appearance of the sample was visually observed and the purity of the samples was analyzed by HPLC.
Therefore, the storage of solid dispersions should avoid exposure to high temperature and high humidity conditions to prevent chemical degradation.

[3] = Four-week solid stability study of API+HPC SSL solid dispersions
Protocol: All solid dispersions with formulation of API+HPC SSL were stored at 25° C./60% RH (open) and 40° C./75% RH (sealed). After one week and four weeks (1 w and 4 w), the sample appearance was visually observed, the crystal form change was tested by XRPD, and the sample purity was analyzed by HPLC. The results are shown in Tables 11 to 12 and FIGS. 37 to 38.

solubility ([1]; 0.25 h): 470 µg/mL (≈ 1010 µM) | solubility ([1]; 0.5 h): 460 µg/mL (≈ 985 µM) | solubility ([1]; 0.75 h): 490 µg/mL (≈ 1050 µM) | solubility ([1]; 1 h): 510 µg/mL (≈ 1090 µM) | solubility ([1]; 2 h): 440 µg/mL (≈ 942 µM) | Appearance ([2]; 25° C./60% RH open, one week): White powder | Contents ([2]; 25° C./60% RH open, one week): 97.26% | Impurities ([2]; 25° C./60% RH open, one week): 0.72% | RRT 0.54 ([2]; 25° C./60% RH open, one week): 0.10% | RRT 0.92 ([2]; 25° C./60% RH open, one week): <LOQ | RRT 0.93 ([2]; 25° C./60% RH open, one week): 0.10% | RRT 0.95 ([2]; 25° C./60% RH open, one week): 0.09% | RRT 0.96 ([2]; 25° C./60% RH open, one week): 0.10% | RRT 1.00 ([2]; 25° C./60% RH open, one week): 99.29% | RRT 1.11 ([2]; 25° C./60% RH open, one week): 0.09% | RRT 1.18 ([2]; 25° C./60% RH open, one week): 0.17% | RRT 1.24 ([2]; 25° C./60% RH open, one week): 0.06% | Appearance ([2]; 40° C./75% RH open, one week): Slight agglomeration | Contents ([2]; 40° C./75% RH open, one week): 96.79% | Impurities ([2]; 40° C./75% RH open, one week): 1.05% | RRT 0.54 ([2]; 40° C./75% RH open, one week): 0.13% | RRT 0.92 ([2]; 40° C./75% RH open, one week): 0.12% | RRT 0.93 ([2]; 40° C./75% RH open, one week): 0.26% | RRT 0.95 ([2]; 40° C./75% RH open, one week): 0.09% | RRT 0.96 ([2]; 40° C./75% RH open, one week): 0.13% | RRT 1.00 ([2]; 40° C./75% RH open, one week): 98.95% | RRT 1.11 ([2]; 40° C./75% RH open, one week): 0.11% | RRT 1.18 ([2]; 40° C./75% RH open, one week): 0.14% | RRT 1.24 ([2]; 40° C./75% RH open, one week): 0.06% | Appearance ([2]; Initial): White powder | Impurities ([2]; Initial): 0.67% | RRT 0.54 ([2]; Initial): 0.11% | RRT 0.92 ([2]; Initial): <LOQ | RRT 0.93 ([2]; Initial): 0.09% | RRT 0.95 ([2]; Initial): 0.09% | RRT 0.96 ([2]; Initial): 0.10% | RRT 1.00 ([2]; Initial): 99.34% | RRT 1.11 ([2]; Initial): 0.07% | RRT 1.18 ([2]; Initial): 0.15% | RRT 1.24 ([2]; Initial): 0.05% | Contents ([3]; 25° C./60% RH open, 1 w): 96.84% | Impurities ([3]; 25° C./60% RH open, 1 w): 0.81% | RRT 0.92 ([3]; 25° C./60% RH open, 1 w): 0.05% | RRT 0.93 ([3]; 25° C./60% RH open, 1 w): 0.10% | RRT 0.95 ([3]; 25° C./60% RH open, 1 w): 0.09% | RRT 0.96 ([3]; 25° C./60% RH open, 1 w): 0.14% | RRT 1.00 ([3]; 25° C./60% RH open, 1 w): 99.20% | RRT 1.10 ([3]; 25° C./60% RH open, 1 w): 0.32% | RRT 1.17 ([3]; 25° C./60% RH open, 1 w): 0.10% | Contents ([3]; 25° C./60% RH open, 4 w): 101.1% | Impurities ([3]; 25° C./60% RH open, 4 w): 0.70% | RRT 0.92 ([3]; 25° C./60% RH open, 4 w): <LOQ | RRT 0.93 ([3]; 25° C./60% RH open, 4 w): 0.07% | RRT 0.95 ([3]; 25° C./60% RH open, 4 w): 0.09% | RRT 0.96 ([3]; 25° C./60% RH open, 4 w): 0.14% | RRT 1.00 ([3]; 25° C./60% RH open, 4 w): 99.30% | RRT 1.10 ([3]; 25° C./60% RH open, 4 w): 0.32% | RRT 1.17 ([3]; 25° C./60% RH open, 4 w): 0.09% | Contents ([3]; 40° C./75% RH sealed, 1 w): 97.46% | Impurities ([3]; 40° C./75% RH sealed, 1 w): 0.75% | RRT 0.92 ([3]; 40° C./75% RH sealed, 1 w): 0.03% | RRT 0.93 ([3]; 40° C./75% RH sealed, 1 w): 0.06% | RRT 0.95 ([3]; 40° C./75% RH sealed, 1 w): 0.09% | RRT 0.96 ([3]; 40° C./75% RH sealed, 1 w): 0.15% | RRT 1.00 ([3]; 40° C./75% RH sealed, 1 w): 99.25% | RRT 1.10 ([3]; 40° C./75% RH sealed, 1 w): 0.32% | RRT 1.17 ([3]; 40° C./75% RH sealed, 1 w): 0.09% | Contents ([3]; 40° C./75% RH sealed, 4 w): 101.2% | Impurities ([3]; 40° C./75% RH sealed, 4 w): 0.70% | RRT 0.92 ([3]; 40° C./75% RH sealed, 4 w): <LOQ | RRT 0.93 ([3]; 40° C./75% RH sealed, 4 w): 0.06% | RRT 0.95 ([3]; 40° C./75% RH sealed, 4 w): 0.09% | RRT 0.96 ([3]; 40° C./75% RH sealed, 4 w): 0.14% | RRT 1.00 ([3]; 40° C./75% RH sealed, 4 w): 99.30% | RRT 1.10 ([3]; 40° C./75% RH sealed, 4 w): 0.33% | RRT 1.17 ([3]; 40° C./75% RH sealed, 4 w): 0.09% | Impurities ([3]; Initial): 0.78% | RRT 0.92 ([3]; Initial): 0.05% | RRT 0.93 ([3]; Initial): 0.10% | RRT 0.95 ([3]; Initial): 0.09% | RRT 0.96 ([3]; Initial): 0.15% | RRT 1.00 ([3]; Initial): 99.22% | RRT 1.10 ([3]; Initial): 0.31% | RRT 1.17 ([3]; Initial): 0.09%
Compound: O=C1CC[C@H](N2Cc3cc(C(=O)N[C@H](c4ccc(Cl)cn4)C4CCC4)ccc3C2=O)C(=O)N1 [API control, N—((S)-(5-chloropyridin-2-yl)(cyclobutyl)methyl)-2-((S)-2,6-dioxopiperidin-3-yl)-1-oxoisoindoline-5-carboxamide]
